In patent publication US8828987B2, “Pyridine amide derivatives as EP4 receptor antagonists” (Rottapharm Biotech S.R.L., priority 2010, dated 2014):

How the values were obtained:
[1] = molecular target: T1, human EP4 receptor (Homo sapiens, UniProt P35408); test: cAMP assay (AlphaScreen) on human EP4 membrane of transfected cells, antagonism of PGE2; format: biochemical; conditions: HEK293 hEP4 cell membrane stimulated with PGE2 3 nM; read-out: functional IC50
T1 construct: expressed in transfected cells; membrane fraction used
T1 sequence (P35408 whole entry): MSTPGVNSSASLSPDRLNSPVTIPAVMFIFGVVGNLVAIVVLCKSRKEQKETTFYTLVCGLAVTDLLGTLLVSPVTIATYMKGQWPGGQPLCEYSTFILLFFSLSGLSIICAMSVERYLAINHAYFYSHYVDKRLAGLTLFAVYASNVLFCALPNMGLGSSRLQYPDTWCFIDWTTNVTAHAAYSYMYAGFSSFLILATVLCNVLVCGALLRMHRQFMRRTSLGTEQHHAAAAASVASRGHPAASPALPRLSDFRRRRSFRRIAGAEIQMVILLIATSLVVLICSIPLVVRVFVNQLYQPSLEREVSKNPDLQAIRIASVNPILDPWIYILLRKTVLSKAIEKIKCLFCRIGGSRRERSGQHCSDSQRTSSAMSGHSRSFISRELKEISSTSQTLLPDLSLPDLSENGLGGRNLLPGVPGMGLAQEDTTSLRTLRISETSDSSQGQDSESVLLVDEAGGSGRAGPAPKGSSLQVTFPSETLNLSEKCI
Text: (§1) Stable Expression of Human EP4 Receptors in the Human Embryonic Kidney (HEK293) Cell Line
(§2) The cDNA clone of human EP4 receptor (NM_000958.2) was obtained from Invitrogen™: Ultimate™ ORF Clone Collection—Clone ID IOH46525. The coding sequence was subcloned in expression vector pcDNA™6.2/V5-DEST by Gateway technology (Invitrogen™).
(§3) Human embryonic kidney cells (HEK-293) were stably transfected with expression vector for human EP4 receptor in according to the method described in FuGENE®6 Transfection Reagent's manual (Roche Applied Science®).
(§4) Preparation of Membrane Fraction:
(§5) The EP4 transfected cells were grown in Dulbecco's modified Eagle's medium containing 10% fetal bovine serum and 10 μg/ml Blasticidin S HCl (selection medium) at 37° C. in a humidified atmosphere of 5% CO2 in air.
(§6) For the membrane preparation, cells in flask were harvested by hypotonical/mechanical lysis with chilled (4° C.) TE buffer (5 mM TRIS, 5 mM etylenediamine tetra-acetic acid (EDTA), pH 7.4).
(§7) Cells were detached and lysed with 10 ml of hypotonic lysis buffer and by scraping. The cell lysate was vortexed for 30 sec and centrifuged at 40000×g at 4° C. for 22 min.
b) cAMP Assay on Human EP4 Membrane of Transfected Cells.
The assay is based on the competition between endogenous cAMP and exogenously added biotinylated cAMP. The capture of cAMP is achieved by using a specific antibody conjugated to […] beads.
Cell membranes prepared as described above, were resuspended in 1 ml stimulation buffer (HBSS 1×+BSA 0.1%+IBMX 0.5 mM+HEPES 5 mM+MgCl2 10 mM+GTP 1 nM+GDP 10 μM+ATP 100 μM−pH 7.4). Cell membranes were dispensed into white 384-well microplates at final concentration of 1 μg/well and used for the determination of cAMP with the alphascreen cAMP functional assay (EnVision—PerkinElmer). Cell membrane/anti-cAMP Acceptor beads mix (5 μl) and a mixture of analysed compounds (dissolved in 100% DMSO to a final maximal concentration of 0.01% DMSO)/PGE2 (5 μl) were incubated at room temperature (22-23° C.) for 30 min in the dark. The Biotinylated-cAMP and donor beads (15 μl) were dispensed into each well to start the competition reaction. After 1 h incubation RT (22-23° C.) in the dark the plate was read using EnVision platform to determine the cAMP level (excitation: 680 nm; emission: 520,620 nm).
cAMP standard curve (concentration range from 1×10-6 to 1×10-11 M in. log intervals) with a negative control (no cAMP) a positive control:forskolin 10 μM
Antagonism studies were performed stimulating HEK293 cell membrane with PGE2 3 nM. The AlphaScreen signal is plotted as a function of log concentration of cAMP and functional IC50 is determined. IC50 value is calculated by linear regression.
Some compounds were tested according to method of example 83b.

[2] = molecular target: T1, human EP4 receptor; test: [3H]-Prostaglandin E2 membrane binding assay (human EP4/HEK293 transfectant membranes); conditions: [3H]-PGE2 1 nM, hEP4/HEK293 membranes; Ki by Cheng-Prusoff; read-out: Binding pKi (converted)
Text: as §1, §2, §3, §4, §5, §6, §7
a) Membrane Binding Assay[3H]-Prostaglandin E2
The membrane pellet was resuspended in the same buffer (5 mM TRIS, 5 mM ethylenediamine tetra-acetic acid (EDTA), pH 7.4), and protein concentration was determined by Bradford method (Bio-Bad® assay).
This membrane preparation was stored at −80° C. freezer until use for binding assay.
([^3H]-PGE2) membranes binding assays toward hEP4 receptors (human EP4/HEK293 transfectant, see above) and hEP2 receptors (human EP2/HEK293 transfectant, purchased from PerkinElmer Inc) were performed in 10 mM MES-KOH buffer pH6, containing 10 mM MgCl2 and 1 mM CaCl2 for EP4 binding assay or 50 mM Tris-Cl, BSA 0.5% for EP2 binding assay (according to supplier indication).
Ten microgram of protein from membrane fractions were incubated in a total volume of 0.1 ml (EP4) or 0.2 ml (EP2) with 1 nM (EP4) or 3 nM (EP2) [^3H]-PGE2 (PerkinElmer Inc, 171 Ci/mmol). In both assays to determine the total binding or non specific binding, 1% DMSO or 1 μM prostaglandin E2 (EP4) or 100 μM (EP2) were added to reaction mixtures, respectively. Incubation was conducted in a polypropylene 96 multiwell for 90 min (EP4) or 60 min (EP2) at room temperature prior to separation of the bound and free radioligand by vacuum manifold rapid filtration on glass fiber filters (Unifilter GFB96, PerkinElmer Inc) pre-soaked in 0.3% polyethyleneimine. Filters were washed with ice cold buffer pH 7.4 (50 mM HEPES, NaCl 500 mM, BSA 0.1% for EP4 binding assay or 50 mM Tris-Cl for EP2 binding assays) and the residual [^3H]-PGE2 binding determined by solid scintillation counter (TopCount, PerkinElmer Inc).
The affinity (Ki) of each compound was calculated according to the Cheng-Prousoff equation: Ki=IC50/(1+([C]/Kd)). Results were expressed as pKi (−log 10 Ki (M)
Compounds of example 1 to 82 were tested according to method of example 83a in a final concentration range from 1 nM to 1 μM.

Row | IC50 [1] | Ki [2] | SMILES
1 | 119 nM | 31.6 nM | O=C(O)c1ccc(CNC(=O)c2cc(Cl)cnc2N2CC(Oc3cccc(F)c3)C2)cc1 [E 22, 4-((5-chloro-2-(3-(3-fluorophenoxy)azetidin-1-yl)nicotinamido)methyl)benzoic acid]
2 | 47 nM | 7.94 nM | O=C(O)c1ccc(C2(NC(=O)c3cc(Cl)cnc3N3CC(Nc4cccc(C(F)(F)F)c4)C3)CC2)cc1 [E 31, 4-(1-(5-chloro-2-(3-((3-(trifluoromethyl)phenyl)amino)azetidin-1-yl)nicotinamido)cyclopropyl)benzoic acid]
3 | 30 nM | 3.98 nM | Cc1cc(C(F)(F)F)ccc1NC1CN(c2ncc(Cl)cc2C(=O)NC2(c3ccc(C(=O)O)cc3)CC2)C1 [E 36, 4-(1-(5-chloro-2-(3-((2-methyl-4-(trifluoromethyl)phenyl)amino)azetidin-1-yl)nicotinamido)cyclopropyl)benzoic acid]
4 | 72 nM | 7.94 nM | O=C(O)c1ccc(C2(NC(=O)c3cc(C(F)(F)F)cnc3N3CC(Oc4ccc(F)cc4)C3)CC2)cc1 [E 39, 4-(1-(2-(3-(4-fluorophenoxy)azetidin-1-yl)-5-(trifluoromethyl)nicotinamido)cyclopropyl)benzoic acid]
5 | 10 nM | 5.01 nM | O=C(O)c1ccc(C2(NC(=O)c3cc(C(F)(F)F)cnc3N3CC(Oc4ccc(Cl)cc4)C3)CC2)cc1 [E 40, 4-(1-(2-(3-(4-chlorophenoxy)azetidin-1-yl)-5-(trifluoromethyl)nicotinamido)cyclopropyl)benzoic acid]
6 | 7.7 nM | 5.01 nM | O=C(O)c1ccc(C2(NC(=O)c3cc(C(F)(F)F)cnc3N3CC(Oc4cccc(Cl)c4)C3)CC2)cc1 [E 41, 4-(1-(2-(3-(3-chlorophenoxy)azetidin-1-yl)-5-(trifluoromethyl)nicotinamido)cyclopropyl)benzoic acid]

Further lines, the molecule ahead of its results:

Row | SMILES | IC50 [1] | Ki [2]
7 | O=C(O)c1ccc(C2(NC(=O)c3cc(Cl)cnc3N3CC(Oc4cccc(N5CCNCC5)c4)C3)CC2)cc1 [E 21, 4-(1-(5-chloro-2-(3-(3-(piperazin-1-yl)phenoxy)azetidin-1-yl)nicotinamido)cyclopropyl)benzoic acid] | 191 nM | 63.1 nM
8 | O=C(O)c1ccc(C2(NC(=O)c3cc(Cl)cnc3N3CC(C(=O)c4cccc(F)c4)C3)CC2)cc1 [E 25, 4-(1-(5-chloro-2-(3-(3-fluorobenzoyl)azetidin-1-yl)nicotinamido)cyclopropyl)benzoic acid] | 135 nM | 63.1 nM
9 | O=C(O)c1ccc(C2(NC(=O)c3cc(Cl)cnc3N3CC(O)(c4ccc(F)cc4)C3)CC2)cc1 [E 28, 4-(1-(5-chloro-2-(3-(4-fluorophenyl)-3-hydroxyazetidin-1-yl)nicotinamido)cyclopropyl)benzoic acid] | 197 nM | 79.4 nM
10 | O=C(O)c1ccc(C2(NC(=O)c3cc(Cl)cnc3N3CC(Nc4cccc(F)c4)C3)CC2)cc1 [E 32, 4-(1-(5-chloro-2-(3-((3-fluorophenyl)amino)azetidin-1-yl)nicotinamido)cyclopropyl)benzoic acid] | 76 nM | 25.1 nM
11 | O=C(O)c1ccc(C2(NC(=O)c3cc(Cl)cnc3N3CC(Nc4ccc(F)cc4)C3)CC2)cc1 [E 33, 4-(1-(5-chloro-2-(3-((4-fluorophenyl)amino)azetidin-1-yl)nicotinamido)cyclopropyl)benzoic acid] | 44.5 nM | 6.31 nM
12 | O=C(O)c1ccc(C2(NC(=O)c3cc(Cl)cnc3N3CC(Nc4ccc(F)cc4F)C3)CC2)cc1 [E 35, 4-(1-(5-chloro-2-(3-((2,4-difluorophenyl)amino)azetidin-1-yl)nicotinamido)cyclopropyl)benzoic acid] | 59 nM | 6.31 nM
13 | Cc1cc(F)ccc1N(C)C1CN(c2ncc(Cl)cc2C(=O)NC2(c3ccc(C(=O)O)cc3)CC2)C1 [E 37, 4-(1-(5-chloro-2-(3-((4-fluoro-2-methylphenyl)(methyl)amino)azetidin-1-yl)nicotinamido)cyclopropyl)benzoic acid] | 31 nM | 12.6 nM
